The source made the active and inactive calls. The calls are words filed in the database; no cut-off is given here.
How the values were obtained:
C6 [1] = test: Inhibition of MTX-induced calcium influx in rat glioma C6 cells using 45CaCl2 incubated for 12 mins prior to MTX-challenge measured after 12 mins by scintillation counting; type: functional, cell-based
C6 [2] = test: Inhibition of MTX-induced calcium influx in rat glioma C6 cells using 45CaCl2 at 10 uM incubated for 12 mins prior to MTX-challenge measured after 12 mins by scintillation counting relative to untreated-control; type: functional
C6 [3] = test: Inhibition of MTX-induced 45Ca2+ influx in rat glioma C6 cells; type: functional, cell-based
Mus musculus = test: Toxicity in ip dosed mouse; type: organism-based; settings: in vivo

Compound | EC50 (C6 [1]) [µM] | inhibition (C6 [1]) | EC50 (C6 [3]) [µM] | also measured
C[C@@]12CC[C@@H]3O[C@@H]4C[C@@H]5O[C@@H]6C[C@@H]7O[C@]8(C)CC[C@@H]9O[C@H](CO)[C@@H](O)C[C@H]9O[C@H]8C[C@H]7O[C@H]6CC[C@@]5(C)O[C@H]4C[C@H]3O[C@H]1C[C@H]1O[C@@H](CCOCc3ccccc3)[C@H](OCc3ccccc3)C[C@@H]1O2 | 15 | – | – | –
C[C@@]12CC[C@@H]3O[C@@H]4C[C@@H]5O[C@@H]6C[C@H](O)[C@@H](CO)O[C@H]6CC[C@@]5(C)O[C@H]4C[C@H]3O[C@H]1C[C@H]1O[C@@H](CCOCc3ccccc3)[C@H](OCc3ccccc3)C[C@@H]1O2 | 2 | Dose-dependent effect | – | inhibition at 10 µM (C6 [2]): 80%
C=C(C=O)C[C@@H]1C[C@H](O)[C@@H]2O[C@@H]3C[C@]4(C)O[C@@H]5/C=C\C[C@@H]6O[C@H]7[C@H](C/C=C\C[C@H]6O[C@H]5CCC[C@H]4O[C@H]3C[C@H]2O1)O[C@@H]1C[C@@H]2O[C@@H]3CC(=O)O[C@H]3C[C@@H](C)C[C@@]2(C)O[C@H]1C[C@@H]7C [BREVETOXIN A] | – | – | 16 | –
C=C(C=O)C[C@@H]1C[C@H](O)[C@]2(C)O[C@@H]3C[C@@H]4O[C@@H]5C[C@]6(C)O[C@]7(C)CC[C@@H]8O[C@@H]9C[C@]%10(C)O[C@@H]%11C(C)=CC(=O)O[C@H]%11C[C@H]%10O[C@H]9C[C@@H](C)[C@H]8O[C@H]7C[C@H]6O[C@@]5(C)C/C=C\[C@H]4O[C@H]3C[C@H]2O1 [BREVETOXIN B] | – | Active | 13 | –
C=CC[C@H](C)[C@H](C)C[C@@H](O)[C@H](O)[C@@H]1CC[C@@]2(C)O[C@@]3(C)C[C@@]4(C)O[C@H]5/C=C\C[C@H]6O[C@H]7C[C@H]8O[C@H]9C[C@@]%10(C)O[C@@](C)([C@@H]%11CC[C@H]%12O[C@@]%13(C)C[C@H]%14O[C@@]%15(C)C[C@H]%16O[C@@]%17(C)C[C@@H](O)[C@H]([C@@H]%18O[C@H]%19[C@H](O)[C@@H](O)[C@H](C[C@H](O)C[C@@H](O)[C@@H]%20O[C@H]%21[C@H](O)[C@@H](O)[C@H]([C@@H]%22O[C@@H]%23[C@H](O)[C@H]%24O[C@H]%25C[C@H]%26O[C@@H](C[C@H](O)[C@@H](O)[C@H]%27O[C@H]%28[C@H](O)[C@H]%29O[C@H]%30C[C@H]%31O[C@H]%32[C@@H](O)[C@@H](O)[C@H]([C@H](C)[C@H](O)[C@H](C)CC[C@H](OS(=O)(=O)[O-])[C@H](O)[C@H](C)C[C@@H](O)C(=C)/C(C)=C/CO)O[C@@H]%32[C@H](O)C[C@]%31(C)O[C@@H]%30C[C@]%29(C)O[C@@H]%28C[C@H]%27O)[C@H](OS(=O)(=O)[O-])[C@H](O)[C@@H]%26O[C@@H]%25C[C@@H]%24O[C@H]%23[C@H](O)[C@H]%22O)O[C@H]%21C[C@H]%20O)O[C@H]%19C[C@H]%18O)O[C@@H]%17[C@H](O)[C@]%16(C)O[C@@H]%15CC[C@]%14(C)O[C@@H]%13C[C@@H]%12O%11)[C@H](O)C[C@@H]%10O[C@]9(C)CC[C@]8(C)O[C@]7(C)C[C@@H]6O[C@@H]5C[C@@H]4O[C@@H]3C[C@@H]2O1.[Na+].[Na+] [MAITOTOXIN] | – | – | – | LD50 (Mus musculus): 0.05 µg/kg
